According to patent publication US4305953A, “Synergistic fungicidal compositions” (priority 1979, dated 1981):

What was measured:
[1] = tested on: Erysiphe graminis; experiment: in vivo effect against powdery mildew on sprayed plants (Example 6, Table VI); details: fenapronil 25 EC, benomyl 50 WP, 6 days after infection
Description: (§1) The in vivo effect of various mixtures of triadimefon 50 WP and benomyl 50 WP was observed against powders mildew (Erysiphe graminis). The plants were grown in plots at 20° C., under a relative humidity of 98% for 7 days. The one-week old plant were then sprayed with the test composition and after drying were […] with Erysiphe graminis. After incubation for 6 days the results were evaluated.
The procedure described in Example 5 was used but fenapronil 25 EC and benomyl 50 WP were tested. The following results have been obtained.

[2] = tested on: Erysiphe graminis; experiment: in vivo effect against powdery mildew on sprayed plants (Example 5, Table V); details: triadimefon 50 WP, benomyl 50 WP, 6 days after infection
Description: as §1

[3] = tested on: various fungi; experiment: interaction / activity against various fungi in vitro, overall result in words; type: cell-based
[4] = tested on: lipid and sterol synthesis; details: mode of action; cited from earlier work
[5] = tested on: fungi which are sensitive to them; details: Fritz et al. 1977; cited from earlier work
[6] = tested on: obligate parasites such as real powdery mildew, blight, rust; details: cited from earlier work

In the case of `CCCCNC(=O)n1c(NC(=O)OC)nc2ccccc21` [benomyl, methyl 1-(butylcarbamoyl)-2-benzimidazolecarbamate], the Extent of infection ([1]; concentration 12 ppm) is reported as 78%, the Extent of infection ([1]; concentration 25 ppm) is reported as 64% and the Extent of infection ([1]; concentration 50 ppm) is reported as 56%. For the same molecule, the Extent of infection ([2]; concentration 3%) was 32.2%, the Extent of infection ([2]; concentration 6%) was 23.3% and the Extent of infection ([2]; concentration 12%) was 16.3%.

In the case of `CCCCC(C#N)(Cn1ccnc1)c1ccccc1` (stereo not drawn) [fenapronil, 1H-α-butyl-α-phenylimidazol-1-yl-propanenitrile], the Extent of infection ([1]; concentration 12 ppm) is reported as 43%, the Extent of infection ([1]; concentration 25 ppm) is reported as 23% and the Extent of infection ([1]; concentration 50 ppm) is reported as 14%. For the same molecule, the activity alone [3] was “extremely potent alone and has a wide field of activity” and the “inhibition of lipid and sterol synthesis” value [4] was “inhibiting lipid and sterol synthesis”.

For `CC(C)NC(=O)N1CC(=O)N(c2cc(Cl)cc(Cl)c2)C1=O` [promidion, 3-(3,5-dichlorophenyl)-2,4-dioxo-1-(N-isopropyl)-imidazolinecarboxamide], the “accumulation of fatty acids and triglycerides” value [5] is listed as “induce an accumulation of fatty acids and triglycerides”.

For `CC(C)(C)C(=O)C(Oc1ccc(Cl)cc1)n1cncn1` (stereo not shown) [triadimefon, 1-(4-chlorophenoxy)-3,3-dimethyl-1-(1H)-(1,2,4-triazol-1-yl)buthan-2-one], the activity alone [3] was “entirely ineffective against the fungi tested in vitro”, the Extent of infection ([2]; concentration 3%) was 73.5% and the Extent of infection ([2]; concentration 6%) was 66.0%. The Extent of infection ([2]; concentration 12%) was 40.6%, the “activity against obligate parasites” value [6] was “effective against obligate parasites such as real powdery mildew, blight, rust” and the “inhibition of lipid and sterol synthesis” value [4] was “inhibiting lipid and sterol synthesis”.

For `C=CC1(C)OC(=O)N(c2cc(Cl)cc(Cl)c2)C1=O` (stereo not shown) [vinclosolin, 3-(3,5-dichlorophenyl)-5-methyl-5-vinyl-1,3-oxazolidine-2,4-dione], the “accumulation of fatty acids and triglycerides” value [5] is given as “induce an accumulation of fatty acids and triglycerides”.
